We go through four molecules from publication PMC4888459 (Biochemical Journal, 2016).

In data set [1] the target is agmatine deiminase (AgD) (Listeria monocytogenes, UniProt A0A0H3G8U9). Put plainly: IC50, colorimetric. The format is biochemical.
The target of data set [2] is AgD from S. mutans (agmatine deiminase) (Streptococcus mutans, UniProt Q8DW17). Put plainly: IC50 plot. The format is biochemical.
Substrate in data set [3]: N=C(N)NCCCCN
Put plainly: purified protein. The format is biochemical, Listeria monocytogenes. Conditions: active site (Cys356, His216; Asp94 and Asp218 believed to orient the substrate).

Chain of AgD from S. mutans (agmatine deiminase) (Q8DW17 whole entry): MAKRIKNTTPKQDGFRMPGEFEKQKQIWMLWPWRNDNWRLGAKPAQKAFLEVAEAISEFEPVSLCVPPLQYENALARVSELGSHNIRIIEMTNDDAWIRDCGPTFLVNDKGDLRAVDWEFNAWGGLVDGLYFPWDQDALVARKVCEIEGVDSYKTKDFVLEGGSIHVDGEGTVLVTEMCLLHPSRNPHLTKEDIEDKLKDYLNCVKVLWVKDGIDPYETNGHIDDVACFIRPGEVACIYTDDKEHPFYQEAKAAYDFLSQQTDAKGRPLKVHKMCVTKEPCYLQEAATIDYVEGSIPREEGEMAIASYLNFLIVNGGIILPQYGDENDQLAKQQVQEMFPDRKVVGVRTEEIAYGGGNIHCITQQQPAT

As for `N=C(CCl)NCCCCN` [ABCA, N-(4-aminobutyl)-2-chloro-ethanimidamide], in data set [1], inhibition was half-maximal at 78.5 ± 1.7 µM (IC50).

In the case of `N=C(N)CCl` [2-chloroacetamidine], in data set [2], the IC50 (as a rule, the concentration needed to halve the response being measured) worked out at 400 ± 100 µM.

Take `N=C(CF)NCCCCN` [ABFA, N-(4-aminobutyl)-2-fluoro-ethanimidamide]: in data set [1], 146 ± 15 µM corresponded to half-maximal inhibition (IC50).

B1: agmatine deiminase (AgD) (Listeria monocytogenes 10403S) (protein)
chain: MRTIDSSSKKDGFRMPGEFEKHAGCYIIWPERPDNWRLGAKPAQKAFVDVATAISHFEPVTVVASSSQYVNARYMLSDEIRVVEMDNDDAWVRDSGPTFVVNDSGDVRGVDWSFNSWGGLVDGLYFPWDKDDQVAQKICELERKDRYRLADFVLEGGSIHVDGEGTLVTTEECLLSEGRNPQLSKQQIEMVLKEYLNLEKIIWLKRGIYLDETNGHVDNIFNYVRPGVVALAWTDDETDPQYEISKECFDILSNETDAKGRKLEVHKINVPKPILITDEESKGVDAVEGTLPREEGDRLAASYINYYTANGGVIFPLFGDPNDELAREKLQQLYPNCEVVGVKAREILLGGGNIHCITQQVPRG
On to B1, for which the Km (in general, the concentration of substrate that gives half-maximal velocity) in data set [3] was found to be 330 ± 90.0 µM.
